Measurements taken from PMC12040169 (PLOS Biology, 2025).

Experiment: in vitro
Conditions: human, hela cells, % viability

Row | Structure (SMILES) | viability at 28.5 h, 10 µM [%]
1 | COC(=O)CCc1ccc(S(=O)(=O)N2CCCN(Cc3cc(F)cc(F)c3)CC2)cc1 [CBK062990] | 106
2 | COC(=O)CCc1ccc(S(=O)(=O)N2CCCN(Cc3c[nH]c4ccc(Cl)cc34)CC2)cc1 [CBK063000] | 99.2
3 | COC(=O)CCc1ccc(S(=O)(=O)N2CCCN(Cc3c(-c4ccccc4)noc3C)CC2)cc1 [CBK063011] | 97.3
4 | CCOC(=O)C1CC1CN1CCCN(S(=O)(=O)c2ccc(C(=O)c3ccccc3)cc2)CC1 (centres unmarked) [CBK063028] | 88.6
5 | CCOc1ccc(S(=O)(=O)N2CCCN(Cc3c[nH]c(C)n3)CC2)c2cccnc12 [CBK063031] | 101
6 | Cc1nc[nH]c1CN1CCCN(S(=O)(=O)c2ccc(C(F)(F)F)cc2Cl)CC1 [CBK063035] | 112
7 | O=S(=O)(c1ccc(C(F)(F)F)cc1Cl)N1CCCN(Cc2ccc3cccc(O)c3n2)CC1 [CBK063036] | 101
8 | O=S(=O)(c1ccc(-c2ccccc2)cc1)N1CCCN(CCCO)CC1 [CBK063043] | 102
9 | CCOc1ccc(S(=O)(=O)N2CCN(CCCC#N)CC2)c2cccnc12 [CBK063046] | 91.6
10 | CCC(C)(C)c1ccc(S(=O)(=O)N2CCCN(Cc3ccc4cccc(O)c4n3)CC2)cc1 [CBK063051] | 90.5
11 | Cc1noc(-c2ccccc2)c1CN1CCCN(S(=O)(=O)c2ccc(C(F)(F)F)cc2Cl)CC1 [CBK063104] | 103
12 | CC(=O)c1ccc(CN2CCCN(S(=O)(=O)c3ccc(C(F)(F)F)cc3Cl)CC2)cc1 [CBK063106] | 104
13 | COc1ccc(CN2CCCN(S(=O)(=O)c3ccc(-c4ccccc4)cc3)CC2)cc1F [CBK063108] | 111
14 | O=S(=O)(c1ccc(-c2ccccc2)cc1)N1CCCN(Cc2ccc(F)c(C(F)(F)F)c2)CC1 [CBK063115] | 98.9
15 | COc1ccc2c(c1)c(CN1CCCN(S(=O)(=O)c3ccc(-c4ccccc4)cc3)CC1)cn2C [CBK063125] | 104
16 | O=S(=O)(c1ccc(-c2ccccc2)cc1)N1CCCN(Cc2cccnc2N2CCOCC2)CC1 [CBK063127] | 99.5
17 | CCC(C)(C)c1ccc(S(=O)(=O)N2CCN(CCCC#N)CC2)cc1 [CBK063134] | 93.4
18 | CCC(C)(C)c1ccc(S(=O)(=O)N2CCN(CCCOC3CCCCO3)CC2)cc1 (centres unmarked) [CBK063135] | 96.9
19 | O=S(=O)(c1ccc(-c2ccccc2)cc1)N1CCCN(CCCOC2CCCCO2)CC1 (centres unmarked) [CBK063137] | 114
20 | CCCC(=O)c1ccc(S(=O)(=O)N2CCN(Cc3cccc(Br)c3)CC2)cc1 [CBK063146] | 87.4
21 | CCCC(=O)c1ccc(S(=O)(=O)N2CCN(Cc3ccc(C(C)=O)cc3)CC2)cc1 [CBK063159] | 107

Row | Structure (SMILES) | viability at 28.5 h, 10 µM [%]
22 | CCCC(=O)c1ccc(S(=O)(=O)N2CCN(Cc3csc(-c4ccccc4)n3)CC2)cc1 [CBK063161] | 93.3
23 | CCCC(=O)c1ccc(S(=O)(=O)N2CCN(Cc3ccc(F)c(C(F)(F)F)c3)CC2)cc1 [CBK063162] | 101
24 | O=S(=O)(c1ccc(C(F)(F)F)cc1Cl)N1CCN(Cc2cccc(Br)c2)CC1 [CBK063163] | 83.7
25 | COc1ccc2[nH]c3c(c2c1)CCN(S(C)(=O)=O)C31CCN(CCOc2ccccc2)C1 (centres unmarked) [CBK063187T] | 92.9
26 | COc1ccc([C@@]23CC[C@H](NC(=O)Nc4cccc(C(F)(F)F)c4F)C[C@@H]2CN(C)C3)cc1OC [CBK063200A] | 92.3
27 | CCCCc1ccc(NC(=O)Nc2ccc3ccc(Cl)nc3n2)cc1 [CBK063259] | 114
28 | O=C(Nc1cc2ccccc2c(Br)n1)N[C@@H]1C[C@H]1c1ccccc1 [CBK063276] | 92.3
29 | O=C(Nc1cc2ccccc2c(Br)n1)Nc1ccc(F)cc1C(F)(F)F [CBK063278] | 96.3
30 | CCOC(=O)CNC(=O)Nc1cc2ccccc2c(Br)n1 [CBK063279] | 92.5
31 | O=C(NCCc1ccccc1)Nc1cc2cccnc2c(Br)n1 [CBK063283] | 95.9
32 | COc1ccc(NC(=O)Nc2cc3cccnc3c(Br)n2)c(C)c1 [CBK063294] | 96.8
33 | O=C(Nc1cc2ccccc2c(Br)n1)c1ccc(C(F)(F)F)cc1[N+](=O)[O-] [CBK063299] | 92.5
34 | Cc1ccc(S(=O)(=O)NCC(=O)Nc2cc3ccccc3c(Br)n2)cc1 [CBK063300] | 101
35 | O=C(Nc1cc2ccccc2c(Br)n1)C(F)(F)F [CBK063301] | 82
36 | CC(=O)N[C@@H](Cc1c[nH]cn1)C(=O)Nc1cc2ccccc2c(Br)n1 [CBK063302] | 91.3
37 | Cc1ccc(S(=O)(=O)n2ccc3ccc(N4CCN(C)CC4)nc32)cc1 [CBK063327] | 84
38 | Nc1ncc(-c2cccnc2)nc1NCc1ccccc1 [CBK063349] | 102
39 | COc1cncc(-c2cnc(N)c(N3CCOCC3)n2)c1 [CBK063360] | 96.7
40 | CN1CCN(c2nc(-c3ccoc3)cnc2N)CC1 [CBK063362] | 103
41 | COc1cc(-c2cnc(N)c(N3CCC(C(=O)O)CC3)n2)cc(OC)c1OC [CBK063365] | 98.9
